{"source": "patent US7390831B2", "about": "“Tetracyclic steroid derivatives useful as progesterone receptor modulators” (Janssen Pharmaceutica N.V., priority 2006, dated 2008)", "key": {"[1]": {"system": "T47D human breast cancer cells", "experiment": "T47D Human Breast Cancer Cells Assay (alkaline phosphatase, luminescence)", "format": "cell-based", "protocol": "T47D Human Breast Cancer Cells Assay\nT47D human breast cancer cells were grown in RPMI medium without phenol red (Invitrogen) containing 10% (v/v) heat-inactivated fetal bovine serum (FBS; Hyclone), 1% (v/v) penicillin-streptomycin (Invitrogen), 1% (w/v) glutamine (Invitrogen), and […] insulin (Sigma). Incubation conditions were 37° C. in a humidified 5% (v/v) carbon dioxide environment.\nThe cells were plated in 96-well tissue culture plates at 10,000 cells per well in assay medium [RPMI medium without phenol red (Invitrogen) containing 5% (v/v) charcoal-treated FBS (Hyclone) and 1% (v/v) penicillin-streptomycin (Invitrogen)]. Two days later, the medium was decanted and test compound or control were added at a final concentration of 0.1% (v/v) dimethyl sulfoxide in fresh assay medium. Twenty-four hours later, an alkaline phosphatase assay was performed using a SEAP kit (BD Biosciences Clontech, Palo Alto, Calif.). Briefly, the medium was decanted and the cells were fixed for 30 minutes at room temperature with 5% (v/v) formalin (Sigma). The cells were washed once with room temperature Hank's buffered saline solution (Invitrogen). Equal volumes (0.05 mL) of 1× Dilution Buffer, Assay Buffer and 1:20 substrate/enhancer mixture were then added. After 1 hour incubation at room temperature in the dark, the lysate was transferred to a white 96-well plate (Dynex) and luminescence was read using a LuminoSkan Ascent (Thermo Electron, Woburn, Mass.).\n(§1) Representative compounds of the present invention were tested according to the procedures described in Examples 45 and 46 above, with results as listed in Table 2 below."}, "[2]": {"system": "A549 Human lung carcinoma cells", "experiment": "A549 Human Lung Cell Assay (transfected cells, dexamethasone challenge, luciferase read-out)", "format": "cell-based", "settings": "test compound 10 min then dexamethasone challenge, 24 h, Luc-assay, read-out: A 549 IC50", "protocol": "A549Human Lung Cell Assay\nA549Human lung carcinoma cells were grown in F-12K Nutrient Mixture containing 10% (v/v) fetal bovine serum (FBS; Invitrogen), 2 mM glutamine and 0.15% sodium dicarbonate (Invitrogen).\nA549 cells were split 1 to 3 in 175 cm tissue culture flask. The cells were incubated at 37° C. in CO2 incubator until the cells were 95% confluent (typically 24-30 hours).\nThe following solutions were prepared in sterile tubes: (a) Solution A 1.5 μg/ml of DNA in 8.5 ml OPTI-MEM I Reduced Serum Medium. (GIBCO cat# 31985) and (b) Solution B: 6 μl/ml of DMRIE-C Reagent into […] OPTI-MEM I. The two solutions were combined and mixed gently, then incubated at room temperature for 40 minutes.\nThe A549 cells prepared above were washed with […] of OPTI-MEM I. The medium was removed and 17 ml of the lipid-DNA complex solution was overlayed onto cells. The cells ere then incubated for 16 h at 37° C. in CO2 incubator. The DNA-containing medium was removed and 30 ml of growth medium was added. (5% Charcoal treated FBS) After 5-6 h, the cells were seeded in a 96 well plate and the cells incubated overnight at 37° C. in CO2 incubator.\nTo each well was then added 5 μl of test compounds and the cells incubated at 37° C. for 10 min. 5 μL of dexamathasone (CAS [50-02-2]), was then added to each well for challenger and the cells incubated at 37° C. in CO2 incubator for 24 h. 100 μl of Luc-assay buffer was then added into each cell well and the cells incubated for 30 min at room temperature. A 150 μL sample from each well was then transferred into a DYNEX Microlitel plate and read on Top-counter.\nas §1"}, "[3]": {"settings": "Homo sapiens, T47D, 24 h, read-out: T47D IC50 (nM), T47D cells, 24 h with test compound, alkaline phosphatase assay (SEAP kit)"}, "[4]": {"settings": "read-out: T47D IC50, T47D cells, 24 h with test compound, alkaline phosphatase assay (SEAP kit)"}}, "note": "Like-named read-outs stand apart in the source and are kept apart here."}
{"smiles": "CSc1ccc([C@H]2OC[C@]3(C)C(C#Cc4ccccc4)=CCC3C3CCC4=CC(=O)CCC4=C32)cc1", "note": "(stereo partly drawn) [Compound 11, 12a-Methyl-10-(4-methylsulfanyl-phenyl)-1-phenylethynyl 3a,3b,4,5,9,10,12,12a-octahydro-3H,8H-11-oxa-naphtho[2,1-e]azulen-7-one]", "values": [{"measurement": "IC50", "setting": "[1]; [3]", "value": "> 1000", "unit": "nM"}, {"measurement": "IC50", "setting": "[2]; Homo sapiens, A549, A549 cells", "value": "> 3", "unit": "µM"}]}
{"smiles": "C#C[C@]1(O)CCC2C3CCC4=CC(=O)CCC4=C3[C@@H](c3ccc(OC)cc3)OC[C@@]21C", "note": "(stereo partly drawn) [Compound 12, 1-Ethynyl-1-hydroxy-10-(4-methoxy-phenyl)-12a-methyl-2,3,3a,3b,4,5,9,10,12,12a-decahydro-1H,8H-11-oxa-naphtho[2,1-e]azulen-7-one]", "values": [{"measurement": "IC50", "setting": "[1]; [3]", "value": "> 1000", "unit": "nM"}, {"measurement": "IC50", "setting": "[2]; Homo sapiens, A549, A549 cells", "value": 0.118, "unit": "µM"}]}
{"smiles": "C#C[C@]1(O)CCC2C3CCC4=CC(=O)CCC4=C3[C@H](c3ccc(OC)cc3)OC[C@@]21C", "note": "(stereo partly drawn) [Compound 13, 1-Ethynyl-1-hydroxy-10-(4-methoxy-phenyl)-12a-methyl 2,3,3a,3b,4,5,9,10,12,12a-decahydro-1H,8H-11-oxa-naphtho[2,1-e]azulen-7-one]", "values": [{"measurement": "IC50", "setting": "[1]; [3]", "value": "> 1000", "unit": "nM"}, {"measurement": "IC50", "setting": "[2]; Homo sapiens, A549, A549 cells", "value": 0.367, "unit": "µM"}]}
{"smiles": "CC#C[C@]1(O)CCC2C3CCC4=CC(=O)CCC4=C3[C@@H](c3ccc(OC)cc3)OC[C@@]21C", "note": "(stereo partly drawn) [Compound 14, 1-Hydroxy-10-(4-methoxy-phenyl)-12a-methyl-1-prop-1-ynyl-2,3,3a,3b,4,5,9,10,12,12a-decahydro-1H,8H-11-oxa-naphtho[2,1-e]azulen-7-one]", "values": [{"measurement": "IC50", "setting": "[1]; [3]", "value": "> 1000", "unit": "nM"}, {"measurement": "IC50", "setting": "[2]; Homo sapiens, A549, A549 cells", "value": 0.046, "unit": "µM"}]}
{"smiles": "CC#C[C@]1(O)CCC2C3CCC4=CC(=O)CCC4=C3[C@H](c3ccc(OC)cc3)OC[C@@]21C", "note": "(stereo partly drawn) [Compound 15, 1-Hydroxy-10-α(4-methoxy-phenyl)-12a-methyl-1-prop-1-ynyl-2,3,3a,3b,4,5,9,10,12,12a-decahydro-1H,8H-11-oxa-naphtho[2,1-e]azulen-7-one]", "values": [{"measurement": "IC50", "setting": "[1]; [3]", "value": "> 1000", "unit": "nM"}, {"measurement": "IC50", "setting": "[2]; Homo sapiens, A549, A549 cells", "value": 0.583, "unit": "µM"}]}
{"smiles": "COc1ccc([C@H]2OC[C@@]3(C)C(CC[C@@]3(O)C#Cc3ccccc3)C3CCC4=CC(=O)CCC4=C32)cc1", "note": "(stereo partly drawn) [Compound 16, 1-Hydroxy-10-(4-methoxy-phenyl)-12a-methyl-1-phenylethynyl-2,3,3a,3b,4,5,9,10,12,12a-decahydro-1H,8H-11-oxa-naphtho[2,1-e]azulen-7-one]", "values": [{"measurement": "IC50", "setting": "[1]; [4]", "value": "> 1000", "unit": "nM"}, {"measurement": "IC50", "setting": "[2]; A549 cells", "value": "> 3", "unit": "µM"}]}
{"smiles": "C=CC[C@]1(O)CCC2C3CCC4=CC(=O)CCC4=C3[C@@H](c3ccc(OC)cc3)OC[C@@]21C", "note": "(stereo partly drawn) [Compound 17, 1-Allyl-1-hydroxy-10-(4-methoxy-phenyl)-12a-methyl 2,3,3a,3b,4,5,9,10,12,12a-decahydro-1H,8H-11-oxa-naphtho[2,1-e]azulen-7-one]", "values": [{"measurement": "IC50", "setting": "[1]; [3]", "value": "> 1000", "unit": "nM"}, {"measurement": "IC50", "setting": "[2]; Homo sapiens, A549, A549 cells", "value": 0.114, "unit": "µM"}]}
{"smiles": "C=CC[C@]1(O)CCC2C3CCC4=CC(=O)CCC4=C3[C@H](c3ccc(OC)cc3)OC[C@@]21C", "note": "(stereo partly drawn) [Compound 18, 1-Allyl-1-hydroxy-10α-(4-methoxy-phenyl)-12a-methyl 2,3,3a,3b,4,5,9,10,12,12a-decahydro-1H,8H-11-oxa-naphtho[2,1-e]azulen-7-one]", "values": [{"measurement": "IC50", "setting": "[1]; [3]", "value": "> 1000", "unit": "nM"}, {"measurement": "IC50", "setting": "[2]; Homo sapiens, A549, A549 cells", "value": "> 3", "unit": "µM"}]}
{"smiles": "COc1ccc([C@H]2OC[C@@]3(C)C(CC[C@@]3(O)C#CC(F)(F)F)C3CCC4=CC(=O)CCC4=C32)cc1", "note": "(stereo partly drawn) [Compound 19, 1-Hydroxy-10-(4-methoxy-phenyl)-12a-methyl-1-trifluoroprop-1-ynyl-2,3,3a,3b,4,5,9,10,12,12a-decahydro-1H,8H-11-oxa-naphtho[2,1-e]azulen-7-one]", "values": [{"measurement": "IC50", "setting": "[1]; [3]", "value": "> 1000", "unit": "nM"}, {"measurement": "IC50", "setting": "[2]; Homo sapiens, A549, A549 cells", "value": "> 3", "unit": "µM"}]}
{"smiles": "COc1ccc([C@@H]2OC[C@@]3(C)C(CC[C@@]3(O)C#CC(F)(F)F)C3CCC4=CC(=O)CCC4=C32)cc1", "note": "(stereo partly drawn) [Compound 20, 1-Hydroxy-10-[…]-(4-methoxy-phenyl)-12a-methyl-1-trifluoroprop-1-ynyl-2,3,3a,3b,4,5,9,10,12,12a-decahydro-1H,8H-11-oxa-naphtho[2,1-e]azulen-7-one]", "values": [{"measurement": "IC50", "setting": "[1]; [3]", "value": "> 1000", "unit": "nM"}, {"measurement": "IC50", "setting": "[2]; Homo sapiens, A549, A549 cells", "value": "> 3", "unit": "µM"}]}
{"smiles": "COc1ccc([C@H]2OC[C@@]3(C)C(CC[C@@]3(O)C#Cc3ccc(C(F)(F)F)cc3)C3CCC4=CC(=O)CCC4=C32)cc1", "note": "(stereo partly drawn) [Compound 21, 1-Hydroxy-10-(4-methoxy-phenyl)-12a-methyl-1-(4-trifluoromethylphenylethynyl)-2,3,3a,3b,4,5,9,10,12,12a-decahydro-1H,8H-11-oxa-naphtho[2,1-e]azulen-7-one]", "values": [{"measurement": "IC50", "setting": "[1]; [4]", "value": "> 1000", "unit": "nM"}, {"measurement": "IC50", "setting": "[2]; A549 cells", "value": "> 1", "unit": "µM"}]}
{"smiles": "COc1ccc([C@@H]2OC[C@@]3(C)C(CC[C@@]3(O)C#Cc3ccc(C(F)(F)F)cc3)C3CCC4=CC(=O)CCC4=C32)cc1", "note": "(stereo partly drawn) [Compound 22, 1-Hydroxy-10-(4-methoxy-phenyl)-12a-methyl-1-(4-trifluoromethylphenylethynyl)-2,3,3a,3b,4,5,9,10,12,12a-decahydro-1H,8H-11-oxa-naphtho[2,1-e]azulen-7-one]", "values": [{"measurement": "IC50", "setting": "[1]; [3]", "value": "> 1000", "unit": "nM"}, {"measurement": "IC50", "setting": "[2]; Homo sapiens, A549, A549 cells", "value": "> 3", "unit": "µM"}]}
{"smiles": "C=C(CCO)[C@]1(O)CCC2C3CCC4=CC(=O)CCC4=C3[C@@H](c3ccc(OC)cc3)OC[C@@]21C", "note": "(stereo partly drawn) [Compound 24]", "values": [{"measurement": "IC50", "setting": "[1]; [3]", "value": 176, "unit": "nM"}, {"measurement": "IC50", "setting": "[1]; [4]", "value": 130, "unit": "nM"}, {"measurement": "IC50", "setting": "[2]; Homo sapiens, A549, A549 cells", "value": 0.771, "unit": "µM"}]}
